Reference: ChEMBL document CHEMBL3867433, “Synthesis and antimicrobial activity of styryl/pyrrolyl/pyrazolyl sulfonylmethyl-1,3,4-oxadiazolyl amines and styryl/pyrrolyl/pyrazolyl sulfonylmethyl-1,3,4-thiadiazolyl amines” (2016)

Experiments:
Type in all cases: functional
Aspergillus niger [1] = test: Antifungal activity against Aspergillus niger assessed as inhibition of spore germination at 25 ug/well after 48 hrs by agar well diffusion method; details: read-out: DIZ
Bacillus subtilis [2] = test: Antibacterial activity against Bacillus subtilis at 50 ug/well after 24 hrs by agar well diffusion method; details: read-out: DIZ
Klebsiella pneumoniae [3] = test: Antibacterial activity against Klebsiella pneumoniae at 12.5 ug/well after 24 hrs by agar well diffusion method; details: read-out: DIZ
Klebsiella pneumoniae [4] = test: Antibacterial activity against Klebsiella pneumoniae at 50 ug/well after 24 hrs by agar well diffusion method; details: read-out: DIZ
Aspergillus niger [5] = test: Antifungal activity against Aspergillus niger assessed as inhibition of spore germination at 50 ug/well after 48 hrs by agar well diffusion method; details: read-out: DIZ
[6] = Antifungal activity against Penicillium chrysogenum assessed as inhibition of spore germination at 12.5 ug/well after 48 hrs by agar well diffusion method
Pseudomonas aeruginosa [7] = test: Antibacterial activity against Pseudomonas aeruginosa at 100 ug/well after 24 hrs by agar well diffusion method; details: read-out: DIZ
Staphylococcus aureus [8] = test: Antibacterial activity against Staphylococcus aureus at 25 ug/well after 24 hrs by agar well diffusion method; details: read-out: DIZ
[9] = Antifungal activity against Penicillium chrysogenum assessed as inhibition of spore germination at 25 ug/well after 48 hrs by agar well diffusion method
Aspergillus niger [10] = test: Antifungal activity against Aspergillus niger assessed as inhibition of spore germination at 12.5 ug/well after 48 hrs by agar well diffusion method; details: read-out: DIZ
Staphylococcus aureus [11] = test: Antibacterial activity against Staphylococcus aureus at 12.5 ug/well after 24 hrs by agar well diffusion method; details: read-out: DIZ
Staphylococcus aureus [12] = test: Antibacterial activity against Staphylococcus aureus at 50 ug/well after 24 hrs by agar well diffusion method; details: read-out: DIZ
Aspergillus niger [13] = test: Antifungal activity against Aspergillus niger assessed as inhibition of spore germination at 100 ug/well after 48 hrs by agar well diffusion method; details: read-out: DIZ
Klebsiella pneumoniae [14] = test: Antibacterial activity against Klebsiella pneumoniae at 100 ug/well after 24 hrs by agar well diffusion method; details: read-out: DIZ
Staphylococcus aureus [15] = test: Antibacterial activity against Staphylococcus aureus at 100 ug/well after 24 hrs by agar well diffusion method; details: read-out: DIZ
Pseudomonas aeruginosa [16] = test: Antibacterial activity against Pseudomonas aeruginosa at 12.5 ug/well after 24 hrs by agar well diffusion method; details: read-out: DIZ
Bacillus subtilis [17] = test: Antibacterial activity against Bacillus subtilis at 25 ug/well after 24 hrs by agar well diffusion method; details: read-out: DIZ
Pseudomonas aeruginosa [18] = test: Antibacterial activity against Pseudomonas aeruginosa at 25 ug/well after 24 hrs by agar well diffusion method; details: read-out: DIZ
Bacillus subtilis [19] = test: Antibacterial activity against Bacillus subtilis at 12.5 ug/well after 24 hrs by agar well diffusion method; details: read-out: DIZ
[20] = Antifungal activity against Penicillium chrysogenum assessed as inhibition of spore germination at 50 ug/well after 48 hrs by agar well diffusion method
Pseudomonas aeruginosa [21] = test: Antibacterial activity against Pseudomonas aeruginosa at 50 ug/well after 24 hrs by agar well diffusion method; details: read-out: DIZ
Klebsiella pneumoniae [22] = test: Antibacterial activity against Klebsiella pneumoniae at 25 ug/well after 24 hrs by agar well diffusion method; details: read-out: DIZ
Bacillus subtilis [23] = test: Antibacterial activity against Bacillus subtilis at 100 ug/well after 24 hrs by agar well diffusion method; details: read-out: DIZ
[24] = Antifungal activity against Penicillium chrysogenum assessed as inhibition of spore germination at 100 ug/well after 48 hrs by agar well diffusion method

Row | SMILES | zone of inhibition at 25 µg/disc (Aspergillus niger [1]) | zone of inhibition at 50 µg/disc (Bacillus subtilis [2]) | zone of inhibition at 12.5 µg/disc (Klebsiella pneumoniae [3]) | zone of inhibition at 50 µg/disc (Klebsiella pneumoniae [4]) | zone of inhibition at 50 µg/disc (Aspergillus niger [5]) | inhibition zone (IZ) [6] | zone of inhibition at 100 µg/disc (Pseudomonas aeruginosa [7]) | inhibition zone (IZ) [9] | zone of inhibition at 50 µg/disc (Staphylococcus aureus [12]) | zone of inhibition at 100 µg/disc (Aspergillus niger [13]) | zone of inhibition at 100 µg/disc (Klebsiella pneumoniae [14]) | zone of inhibition at 100 µg/disc (Staphylococcus aureus [15]) | zone of inhibition at 12.5 µg/disc (Pseudomonas aeruginosa [16]) | zone of inhibition at 25 µg/disc (Bacillus subtilis [17]) | zone of inhibition at 25 µg/disc (Pseudomonas aeruginosa [18]) | zone of inhibition at 12.5 µg/disc (Bacillus subtilis [19]) | inhibition zone (IZ) [20] | zone of inhibition at 50 µg/disc (Pseudomonas aeruginosa [21]) | zone of inhibition at 100 µg/disc (Bacillus subtilis [23]) | inhibition zone (IZ) [24] | further results
1 | Nc1nnc(CS(=O)(=O)/C=C\c2ccccc2)s1 | 27 mm | 29 mm | 27 mm | 31 mm | 29 mm | 29 mm | 29 mm | 34 mm | 23 mm | 31 mm | 33 mm | 25 mm | 23 mm | 28 mm | 25 mm | 27 mm | 36 mm | 27 mm | 31 mm | 35 mm | zone of inhibition at 25 µg/disc (Staphylococcus aureus [8]): 22 mm; zone of inhibition at 12.5 µg/disc (Aspergillus niger [10]): 25 mm; zone of inhibition at 12.5 µg/disc (Staphylococcus aureus [11]): 21 mm; zone of inhibition at 25 µg/disc (Klebsiella pneumoniae [22]): 29 mm
2 | Nc1nnc(CS(=O)(=O)c2n[nH]cc2-c2ccccc2)o1 | 9 mm | 11 mm | 10 mm | 14 mm | 11 mm | – | 17 mm | 12 mm | 10 mm | 13 mm | 16 mm | 14 mm | 11 mm | 9 mm | 13 mm | 7 mm | 14 mm | 15 mm | 15 mm | 16 mm | zone of inhibition at 25 µg/disc (Klebsiella pneumoniae [22]): 12 mm
3 | Cc1ccc(/C=C\S(=O)(=O)Cc2nnc(N)s2)cc1 | 24 mm | 27 mm | 23 mm | 27 mm | 26 mm | 25 mm | 27 mm | 27 mm | 21 mm | 28 mm | 29 mm | 23 mm | 21 mm | 26 mm | 23 mm | 25 mm | 29 mm | 25 mm | 29 mm | 31 mm | zone of inhibition at 25 µg/disc (Staphylococcus aureus [8]): 20 mm; zone of inhibition at 12.5 µg/disc (Aspergillus niger [10]): 22 mm; zone of inhibition at 12.5 µg/disc (Staphylococcus aureus [11]): 19 mm; zone of inhibition at 25 µg/disc (Klebsiella pneumoniae [22]): 25 mm
4 | Nc1nnc(CS(=O)(=O)/C=C\c2ccc(Cl)cc2)o1 | 15 mm | 15 mm | 16 mm | 20 mm | 17 mm | 15 mm | 21 mm | 16 mm | 16 mm | 19 mm | 22 mm | 20 mm | 15 mm | 14 mm | 17 mm | 13 mm | 18 mm | 19 mm | 17 mm | 20 mm | zone of inhibition at 25 µg/disc (Staphylococcus aureus [8]): 14 mm; zone of inhibition at 12.5 µg/disc (Aspergillus niger [10]): 13 mm; zone of inhibition at 12.5 µg/disc (Staphylococcus aureus [11]): 12 mm; zone of inhibition at 25 µg/disc (Klebsiella pneumoniae [22]): 18 mm
5 | Nc1nnc(CS(=O)(=O)c2n[nH]cc2-c2ccc(Cl)cc2)o1 | 9 mm | 12 mm | 11 mm | 15 mm | 11 mm | 12 mm | 18 mm | 13 mm | 12 mm | 13 mm | 17 mm | 15 mm | 12 mm | 9 mm | 14 mm | 8 mm | 15 mm | 16 mm | 13 mm | 17 mm | zone of inhibition at 25 µg/disc (Staphylococcus aureus [8]): 10 mm; zone of inhibition at 12.5 µg/disc (Staphylococcus aureus [11]): 8 mm; zone of inhibition at 25 µg/disc (Klebsiella pneumoniae [22]): 13 mm
6 | Nc1nnc(CS(=O)(=O)c2c[nH]cc2-c2ccccc2)o1 | 8 mm | – | – | 11 mm | 10 mm | 11 mm | 14 mm | 12 mm | – | 12 mm | 13 mm | 11 mm | 8 mm | – | 10 mm | – | 14 mm | 12 mm | 12 mm | 16 mm | –
7 | Cc1ccc(-c2c[nH]nc2S(=O)(=O)Cc2nnc(N)o2)cc1 | 8 mm | 9 mm | – | 12 mm | 10 mm | – | 14 mm | – | – | 10 mm | 14 mm | 12 mm | 9 mm | 7 mm | 10 mm | 6 mm | 11 mm | 12 mm | 11 mm | 14 mm | –
8 | Cc1ccc(-c2c[nH]cc2S(=O)(=O)Cc2nnc(N)o2)cc1 | – | – | – | – | 7 mm | 8 mm | 11 mm | 10 mm | – | 9 mm | 12 mm | 10 mm | – | – | – | – | 12 mm | 10 mm | 10 mm | 14 mm | –
9 | Nc1nnc(CS(=O)(=O)c2c[nH]cc2-c2ccc(Cl)cc2)o1 | 10 mm | 11 mm | 8 mm | 12 mm | 9 mm | 12 mm | 15 mm | 14 mm | 9 mm | 14 mm | 14 mm | 12 mm | 9 mm | – | 11 mm | – | 16 mm | 13 mm | 13 mm | 18 mm | zone of inhibition at 25 µg/disc (Staphylococcus aureus [8]): 8 mm; zone of inhibition at 12.5 µg/disc (Staphylococcus aureus [11]): 7 mm; zone of inhibition at 25 µg/disc (Klebsiella pneumoniae [22]): 10 mm
10 | Nc1nnc(CS(=O)(=O)C2=NNCC2c2ccccc2)s1 (stereo not given) | – | – | – | – | 7 mm | – | – | – | – | 9 mm | – | – | – | – | – | – | – | – | – | 12 mm | –
11 | Cc1ccc(/C=C\S(=O)(=O)Cc2nnc(N)o2)cc1 | 10 mm | 11 mm | 11 mm | 15 mm | 11 mm | 10 mm | 18 mm | 12 mm | 12 mm | 13 mm | 17 mm | 14 mm | 12 mm | 9 mm | 14 mm | 8 mm | 14 mm | 16 mm | 14 mm | 16 mm | zone of inhibition at 12.5 µg/disc (Aspergillus niger [10]): 8 mm; zone of inhibition at 25 µg/disc (Klebsiella pneumoniae [22]): 13 mm
12 | Cc1ccc(C2CNN=C2S(=O)(=O)Cc2nnc(N)s2)cc1 (stereo not given) | – | – | – | – | 4 mm | – | – | – | – | 8 mm | – | – | – | – | – | – | – | – | – | 11 mm | –
13 | Nc1nnc(CS(=O)(=O)C2=NNCC2c2ccc(Cl)cc2)s1 (stereo not given) | – | – | – | – | 10 mm | – | – | – | – | 11 mm | – | – | – | – | – | – | 10 mm | – | – | 13 mm | –
